One assay has as its target Nonstructural protein 1 (Influenza A virus, UniProt Q194T2). It is filed as functional, Influenza A virus (A/California/07/2009(H1N1)).
The next assay has as its target Paired box protein Pax-8 (Homo sapiens, UniProt Q06710). In words: inhibitors of PAX8-driven TPO luciferase reporter, dose response, RMG-I cells, cherry-pick (AID 687027).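 Also: luciferase reporter driven by Pax8 target thyroperoxidase promoter measured by SteadyGlo luminescence.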 The assay is classed as functional, cell-based. (A reporter such as luciferase makes a cellular process visible.)
The target of assay [1] is Neurotensin receptor type 1 (Homo sapiens, UniProt P30989). It is filed as functional.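 Also: Image-based confirmatory dose-response assay measuring agonist activity at NTR1; NTR1-expressing U2OS osteosarcoma cells imaged for beta-arrestin GFP spot formation; agonist potency where compounds increase beta-arrestin recruitment.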
Another assay concerns the target Trypsin (Sus scrofa, UniProt P00761). Kind of assay: porcine trypsin inhibitors, dose response, selectivity assay for Rce1 protease inhibitor project, biochemical, quenched peptide fluorescence, cherry-pick (AID 488789).
For assay [2], the target named is T1, Histone-lysine N-methyltransferase NSD2 (Homo sapiens, UniProt O96028).
T1 sequence (O96028 whole entry): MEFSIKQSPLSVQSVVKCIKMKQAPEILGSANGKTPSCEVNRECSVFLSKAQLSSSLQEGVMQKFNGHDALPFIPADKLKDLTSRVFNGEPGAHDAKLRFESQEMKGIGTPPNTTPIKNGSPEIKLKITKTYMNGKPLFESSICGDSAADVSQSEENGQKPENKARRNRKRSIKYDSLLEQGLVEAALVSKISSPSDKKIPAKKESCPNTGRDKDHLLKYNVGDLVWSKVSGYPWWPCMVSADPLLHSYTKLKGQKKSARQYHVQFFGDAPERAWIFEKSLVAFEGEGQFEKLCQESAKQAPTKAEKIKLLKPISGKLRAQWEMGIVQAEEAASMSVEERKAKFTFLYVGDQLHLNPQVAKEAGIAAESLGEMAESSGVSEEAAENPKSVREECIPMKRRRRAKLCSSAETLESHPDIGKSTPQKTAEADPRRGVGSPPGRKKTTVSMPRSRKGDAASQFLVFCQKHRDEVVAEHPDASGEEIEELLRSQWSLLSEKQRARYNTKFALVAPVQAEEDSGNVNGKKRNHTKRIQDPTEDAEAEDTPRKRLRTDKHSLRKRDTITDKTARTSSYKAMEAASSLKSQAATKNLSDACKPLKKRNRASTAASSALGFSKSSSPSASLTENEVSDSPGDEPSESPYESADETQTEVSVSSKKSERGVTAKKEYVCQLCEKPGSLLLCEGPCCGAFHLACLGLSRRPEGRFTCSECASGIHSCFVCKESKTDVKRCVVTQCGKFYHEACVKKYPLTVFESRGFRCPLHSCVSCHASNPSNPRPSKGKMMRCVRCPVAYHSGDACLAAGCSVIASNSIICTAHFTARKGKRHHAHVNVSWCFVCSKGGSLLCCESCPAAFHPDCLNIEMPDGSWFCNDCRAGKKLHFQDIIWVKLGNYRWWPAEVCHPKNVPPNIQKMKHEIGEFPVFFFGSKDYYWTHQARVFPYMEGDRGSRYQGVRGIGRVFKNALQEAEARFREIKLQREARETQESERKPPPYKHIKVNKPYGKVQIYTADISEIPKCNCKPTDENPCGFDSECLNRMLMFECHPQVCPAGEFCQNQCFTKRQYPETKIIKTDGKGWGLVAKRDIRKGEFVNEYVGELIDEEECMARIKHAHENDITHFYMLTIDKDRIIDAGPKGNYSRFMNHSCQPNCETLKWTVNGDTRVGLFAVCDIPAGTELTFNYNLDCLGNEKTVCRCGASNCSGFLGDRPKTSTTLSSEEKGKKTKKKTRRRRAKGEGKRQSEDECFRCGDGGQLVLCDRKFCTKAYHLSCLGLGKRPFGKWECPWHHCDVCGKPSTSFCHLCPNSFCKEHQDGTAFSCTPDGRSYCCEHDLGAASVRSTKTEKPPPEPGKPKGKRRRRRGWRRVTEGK
The assay is classed as biochemical.

Assay [3] has as its target Serine/threonine-protein phosphatase PP1-alpha catalytic subunit (Homo sapiens, UniProt P62136). Kind of assay: PP1 phosphatase inhibitors, dose response, biochemical, fluorescence (AID 2394).
The next assay concerns Streptococcus. In words: Group A Streptococcus viability loss, dose response, counter-screen for streptokinase expression inhibitor project, luminescence, BacTiterGlo (AID 1915).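 Also: potency for reduction of bacterial viability or growth.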 The assay is classed as functional, organism-based. A general note: The purpose of a counterscreen is to sort out artefacts and off-target activity.
For assay [4], the target named is T2, DNA repair protein RAD52 homolog (Homo sapiens, UniProt P43351).
T2 sequence (P43351 whole entry): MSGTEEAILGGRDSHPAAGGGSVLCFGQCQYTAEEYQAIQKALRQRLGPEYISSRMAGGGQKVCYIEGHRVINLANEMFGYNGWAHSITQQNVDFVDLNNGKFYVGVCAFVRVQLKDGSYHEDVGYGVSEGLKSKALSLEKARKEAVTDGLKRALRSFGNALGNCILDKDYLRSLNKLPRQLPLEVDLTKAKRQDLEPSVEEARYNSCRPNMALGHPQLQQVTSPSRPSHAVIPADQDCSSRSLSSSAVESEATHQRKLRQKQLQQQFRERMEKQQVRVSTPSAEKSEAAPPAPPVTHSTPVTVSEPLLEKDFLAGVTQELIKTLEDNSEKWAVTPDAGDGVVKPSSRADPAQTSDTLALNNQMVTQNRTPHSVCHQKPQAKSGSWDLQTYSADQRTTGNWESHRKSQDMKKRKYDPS
The assay is classed as functional, biochemical.

The term IC50 denotes the point on the concentration scale where inhibition reaches its midpoint. A word on the AC50: it is the concentration at which the activity in the assay is half-maximal. By EC50 is commonly meant the concentration needed to bring the measured effect to its halfway point.

Structures are written as SMILES. Active and inactive are the calls of the source.

Paired box protein Pax-8, sequence (Q06710 whole entry): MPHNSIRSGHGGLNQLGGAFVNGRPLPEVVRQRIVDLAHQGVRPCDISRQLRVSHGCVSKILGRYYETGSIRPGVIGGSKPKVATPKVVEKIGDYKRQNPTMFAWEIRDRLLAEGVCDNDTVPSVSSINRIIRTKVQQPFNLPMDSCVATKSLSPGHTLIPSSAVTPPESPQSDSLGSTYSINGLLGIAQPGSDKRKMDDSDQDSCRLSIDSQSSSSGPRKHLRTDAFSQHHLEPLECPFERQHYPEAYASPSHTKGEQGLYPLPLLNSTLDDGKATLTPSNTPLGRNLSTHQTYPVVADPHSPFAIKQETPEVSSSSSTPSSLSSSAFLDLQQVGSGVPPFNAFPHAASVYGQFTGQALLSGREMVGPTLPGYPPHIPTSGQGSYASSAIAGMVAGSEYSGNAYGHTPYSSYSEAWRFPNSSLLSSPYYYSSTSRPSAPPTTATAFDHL
Serine/threonine-protein phosphatase PP1-alpha catalytic subunit, sequence (P62136 whole entry): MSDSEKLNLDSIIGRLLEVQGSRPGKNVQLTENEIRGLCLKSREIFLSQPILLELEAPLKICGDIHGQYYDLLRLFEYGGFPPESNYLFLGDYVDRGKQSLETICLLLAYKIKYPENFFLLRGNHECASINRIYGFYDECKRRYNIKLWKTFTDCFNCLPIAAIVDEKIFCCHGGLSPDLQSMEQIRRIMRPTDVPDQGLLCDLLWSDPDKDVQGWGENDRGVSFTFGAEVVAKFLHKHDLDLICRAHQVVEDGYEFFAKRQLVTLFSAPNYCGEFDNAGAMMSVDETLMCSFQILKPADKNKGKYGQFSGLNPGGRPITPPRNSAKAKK
Trypsin, sequence (P00761 whole entry): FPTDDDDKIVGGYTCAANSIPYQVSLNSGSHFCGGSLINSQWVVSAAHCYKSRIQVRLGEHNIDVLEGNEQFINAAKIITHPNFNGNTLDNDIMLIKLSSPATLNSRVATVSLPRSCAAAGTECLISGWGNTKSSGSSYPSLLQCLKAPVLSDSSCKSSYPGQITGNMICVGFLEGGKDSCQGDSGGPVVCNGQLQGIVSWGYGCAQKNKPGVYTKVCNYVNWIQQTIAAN
Neurotensin receptor type 1, sequence (P30989 whole entry): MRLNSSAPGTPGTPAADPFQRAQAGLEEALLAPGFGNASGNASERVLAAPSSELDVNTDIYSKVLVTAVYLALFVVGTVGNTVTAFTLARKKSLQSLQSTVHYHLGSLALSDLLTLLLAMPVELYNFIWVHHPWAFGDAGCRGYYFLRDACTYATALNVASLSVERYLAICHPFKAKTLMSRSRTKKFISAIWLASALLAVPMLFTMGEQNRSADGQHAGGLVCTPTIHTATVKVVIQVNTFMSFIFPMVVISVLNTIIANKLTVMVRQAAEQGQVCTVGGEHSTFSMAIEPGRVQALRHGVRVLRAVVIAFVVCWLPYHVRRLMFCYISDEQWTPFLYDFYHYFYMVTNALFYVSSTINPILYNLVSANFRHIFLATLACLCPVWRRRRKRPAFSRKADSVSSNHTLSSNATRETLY
Nonstructural protein 1, sequence (Q194T2 whole entry): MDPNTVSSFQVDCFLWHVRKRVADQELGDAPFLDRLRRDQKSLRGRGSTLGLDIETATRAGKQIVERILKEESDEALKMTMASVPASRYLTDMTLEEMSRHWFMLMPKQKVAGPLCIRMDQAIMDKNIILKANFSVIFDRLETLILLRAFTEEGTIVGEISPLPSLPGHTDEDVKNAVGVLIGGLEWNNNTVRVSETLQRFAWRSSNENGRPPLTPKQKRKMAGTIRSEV

Regarding `COc1cc(OC)c(NC2=CC(=O)C(=O)c3ccccc32)cc1Cl`, on Nonstructural protein 1, the IC50 is > 100 µM (active). For the same molecule, the AC50 on Paired box protein Pax-8 was 3.4 µM (active).
For `CCCCCCCCCCOC(=O)Cn1c(COc2cccc(OC)c2)[n+](C)c2ccccc21`, in assay [1], the EC50 was 14.3 µM (active). Further, the AC50 on Trypsin was 5.16 µM (active).
In the case of `CCc1ccc(S(=O)(=O)/N=C2\C=C(Nc3cccc(C(=O)O)c3)C(=O)c3ccccc32)cc1`, in assay [2], the AC50 was 0.263 µM (active). For the same molecule, the half-inhibitory concentration (IC50) in assay [3] is recorded as 22.7 µM (not active). For the same molecule, the EC50 in the assay on Streptococcus is 1.9 µM (active).
Take `COc1cc2c(cc1OC)-c1c(OC)c(OC)cc3c1C(C2)N(C)CC3` (stereo not drawn): the AC50 in assay [4] was 2.14 µM (active).
